The results in this text go back to patent US10316017B2, “COT modulators and methods of use thereof” (Gilead Sciences, Inc., priority 2015, dated 2019).

The term EC50 denotes the midpoint of the concentration-response curve. In general, IC50 refers to the point on the concentration scale where inhibition reaches its midpoint.

Where two headings read alike, the source gives them in different places.

The subject of assay [1] is TNFα production in LPS-stimulated human monocytes. Briefly: Cot Monocyte TNFα Cell Based Assay. The note with it: Homo sapiens, Monocyte, read-out: EC50 TNF. In outline:
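TNFα release quantified by two-antibody TR-FRET, normalised to unstimulated (0%) and LPS-stimulated (100%) wells. Cells got a 1 h compound exposure at 37° C in 0.5% DMSO before 4 h challenge with 50 pg/ml LPS, at 5,000 cells/well.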

Assay [2] deals with T1, human Cot catalytic domain (30-397 amino acids) (Homo sapiens, UniProt P41279).
T1 construct: Purified recombinant human Cot catalytic domain (30-397 amino acids) was purchased from Cama Biosciences; purchased Cama Biosciences (so in the source)
Kind of assay: High Throughput Cot Biochemical Assay (KinEASE TR-FRET). The note with it: read-out: IC50 HTRF. The method in brief:
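TR-FRET (KinEASE) read-out: Eu-labelled phospho-specific antibody binds XL665-tagged STK3 peptide (1 μM) phosphorylated by 5 nM human Cot kinase domain (residues 30-397). Reaction at 400 μM ATP, pH 7.0 MOPS buffer with 10 mM MgOAc, 1 mM DTT and 0.1% DMSO.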
(In general: TR-FRET usually uses a lanthanide donor and a delayed reading to cut background.)

The mark [3] stands for this setting: LPS-stimulated human monocytes, TNFα TR-FRET.
The mark [4] stands for this setting: Cot KinEASE TR-FRET, 400 μM ATP.
The mark [5] stands for this setting: TNFα in LPS-stimulated human monocytes.
[6] abbreviates: Cot KinEASE TR-FRET (HTRF) biochemical assay, 400 μM ATP.
Setting [7] is: Cot biochemical HTRF (KinEASE TR-FRET) assay.

T1 sequence (P41279 30-397): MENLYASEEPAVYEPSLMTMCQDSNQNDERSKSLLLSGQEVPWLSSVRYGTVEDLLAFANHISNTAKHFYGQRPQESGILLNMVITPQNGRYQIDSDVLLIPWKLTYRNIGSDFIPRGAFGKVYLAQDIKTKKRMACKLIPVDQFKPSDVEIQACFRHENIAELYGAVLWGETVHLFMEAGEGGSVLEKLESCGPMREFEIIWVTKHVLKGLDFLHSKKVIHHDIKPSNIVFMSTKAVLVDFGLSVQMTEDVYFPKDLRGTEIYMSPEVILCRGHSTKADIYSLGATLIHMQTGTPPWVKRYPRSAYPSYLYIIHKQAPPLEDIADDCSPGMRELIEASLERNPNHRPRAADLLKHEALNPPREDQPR

For the compound `[2H][C@](Nc1cc(Cl)c2ncc(C#N)c(Nc3cccc(Cl)c3S(C)(=O)=O)c2c1)(c1ccc(F)cc1)c1cn(C2CC2)nn1` [Example 935, (S)-8-chloro-4-((3-chloro-2-(methylsulfonyl)phenyl)amino)-6-(((1-cyclopropyl-1H-1,2,3-triazol-4-yl)(4-fluorophenyl)methyl-d)amino)quinoline-3-carbonitrile], in assay [1] (setting [3]), the EC50 was ≥ 1000 nM. Also, the IC50 in assay [2] (setting [4]) was ≥ 10000 nM.
Take `CC(C)(C)CNc1c(C#N)cnc2c(C#N)cc(N[C@@H](c3cccc(C(=O)N4CC(O)C4)c3)c3cn(C4CC4)nn3)cc12` [Example 57, (S)-6-(((1-cyclopropyl-1H-1,2,3-triazol-4-yl) (3-(3-hydroxyazetidine-1-carbonyl)phenyl)methyl)amino)-4-(neopentylamino) quinoline-3,8-dicarbonitrile]: the EC50 in assay [1] (setting [5]) was > 1000 nM. Moreover, the IC50 in assay [2] (setting [6]) was found to be 3 nM.
`Cc1ccccc1[C@H](Nc1cc(Cl)c2ncc(C#N)c(NCC(C)(C)C)c2c1)c1cn(C2(C(F)F)CC2)nn1` [Example 1060, (S)-8-chloro-6-(((1-(1-(difluoromethyl)cyclopropyl)-1H-1,2,3-triazol-4-yl)(o-tolyl)methyl)amino)-4-(neopentylamino)quinoline-3-carbonitrile]: the EC50 in assay [1] (setting [3]) is 311 nM. In addition, the IC50 in assay [2] (setting [4]) came out at 33 nM.
Take `Cc1c(-c2ncco2)cccc1[C@H](Nc1cc(Cl)c2ncc(C#N)c(NCC(C)(C)C)c2c1)c1cn(C2(C(F)(F)F)CC2)nn1` [Example 1050, (S)-8-chloro-6-(((2-methyl-3-(oxazol-2-yl)phenyl)(1-(1-(trifluoromethyl)cyclopropyl)-1H-1,2,3-triazol-4-yl)methyl)amino)-4-(neopentylamino)quinoline-3-carbonitrile]: in assay [1] (setting [3]), the EC50 worked out at 202 nM. Moreover, the IC50 in assay [2] (setting [4]) is 7 nM.
Turning to `CC(C)n1cc([C@@H](Nc2cc(Cl)c3ncc(C#N)c(Nc4ccc(F)c(Cl)c4)c3c2)c2cccc(N3CCCC3=O)c2)nn1` [Example 549, (S)-8-chloro-4-((3-chloro-4-fluorophenyl)amino)-6-(((1-isopropyl-1H-1,2,3-triazol-4-yl) (3-(2-oxopyrrolidin-1-yl)phenyl)methyl)amino) quinoline-3-carbonitrile], the EC50 in assay [1] (setting [5]) amounted to 650 nM. Also, in assay [2] (setting [7]), the IC50 was found to be 3 nM.
With `CC1CCN1C(=O)c1cccc([C@H](Nc2cc(Cl)c3ncc(C#N)c(Nc4ccc(F)c(Cl)c4)c3c2)c2cn(C3CCN(C(C)(C)C)CC3)nn2)c1` (stereo partly drawn) [Example 593, 6-(((1S)-(1-(1-(tert-butyl)piperidin-4-yl)-1H-1,2,3-triazol-4-yl)(3-(2-methylazetidine-1-carbonyl)phenyl)methyl)amino)-8-chloro-4-((3-chloro-4-fluorophenyl)amino)quinoline-3-carbonitrile], in assay [1] (setting [5]), the EC50 was 147 nM. Besides, the IC50 in assay [2] (setting [7]) turned out to be 1 nM.
In the case of `[2H][C@](Nc1cc(Cl)c2ncc(C#N)c(NCC(Cl)(Cl)Cl)c2c1)(c1ccc(F)cc1)c1cn(C2CC2)nn1` [Example 191, (S)-8-chloro-6-(((1-cyclopropyl-1H-1,2,3-triazol-4-yl)(4-fluorophenyl)methyl-d)amino)-4-((2,2,2-trichloroethyl)amino) quinoline-3-carbonitrile], the EC50 in assay [1] (setting [5]) was determined as 487 nM. In addition, the IC50 in assay [2] (setting [6]) is 56 nM.
Taken in the same sequence, the figures for `[2H][C@](Nc1cc(Cl)c2ncc(C#N)c(N[C@@H]3C[C@H]3C(F)(F)F)c2c1)(c1ccc(F)cc1)c1cn(C2CC2)nn1` [Example 154, 8-chloro-6-(((S)-(1-cyclopropyl-1H-1,2,3-triazol-4-yl)(4-fluorophenyl)methyl-d)amino)-4-(((1R,2R)-2-(trifluoromethyl)cyclopropyl)amino)quinoline-3-carbonitrile] were 576 nM and 39 nM.
For `CC[C@@H](Nc1c(C#N)cnc2c(Cl)cc(N[C@@H](c3cccc(C(=O)O)c3)c3c[nH]nn3)cc12)c1ccccc1` [Example 565, 3-((S)-((8-chloro-3-cyano-4-(((R)-1-phenylpropyl)amino)quinolin-6-yl)amino)(1H-1,2,3-triazol-4-yl)methyl)benzoic acid], in assay [1] (setting [5]), the EC50 is > 10000 nM. The IC50 in assay [2] (setting [7]) turned out to be 24 nM.
Regarding `CC(C)(C)CNc1c(C#N)cnc2c(C#N)cc(N[C@@H](c3ccc(F)cc3)c3cn(C4(C(N)=O)CCC4)nn3)cc12` [Example 985, (S)-1-(4-(((3,8-dicyano-4-(neopentylamino)quinolin-6-yl)amino)(4-fluorophenyl)methyl)-1H-1,2,3-triazol-1-yl)cyclobutane-1-carboxamide], the EC50 in assay [1] (setting [3]) was 119 nM. The IC50 in assay [2] (setting [4]) stood at 4 nM.
Consider `N#CCC[C@@H](Nc1c(C#N)cnc2c(Cl)cc(N[C@H](c3cn(C(F)(F)CO)nn3)c3ccccc3Cl)cc12)c1ccccc1` [Example 67, 8-chloro-6-(((S)-(2-chlorophenyl)(1-(1,1-difluoro-2-hydroxyethyl)-1H-1,2,3-triazol-4-yl)methyl)amino)-4-(((R)-3-cyano-1-phenylpropyl)amino) quinoline-3-carbonitrile], for which the EC50 in assay [1] (setting [5]) is 41 nM. Also, in assay [2] (setting [6]), the IC50 came to 2 nM.
`C[C@@H](Nc1c(C#N)cnc2c(Cl)cc(N[C@@H](c3ccccc3)c3cn(C4CCN(C(C)(C)C)CC4)nn3)cc12)C1CCOCC1` [Example 524, 6-(((S)-(1-(1-(tert-butyl)piperidin-4-yl)-1H-1,2,3-triazol-4-yl)(phenyl)methyl)amino)-8-chloro-4-(((R)-1-(tetrahydro-2H-pyran-4-yl)ethyl)amino) quinoline-3-carbonitrile]: the EC50 in assay [1] (setting [5]) was > 10000 nM. In addition, in assay [2] (setting [7]), the IC50 amounted to 787 nM.
Take `CC(C)(C)CNc1c(C#N)cnc2c(Cl)cc(N[C@@H](c3ccccc3Cl)c3nnn(C4(C)CC4)c3F)cc12` [Example 1169, (S)-8-chloro-6-(((2-chlorophenyl)(5-fluoro-1-(1-methylcyclopropyl)-1H-1,2,3-triazol-4-yl)methyl)amino)-4-(neopentylamino)quinoline-3-carbonitrile]: the EC50 in assay [1] (setting [3]) is ≥ 1000 nM. The IC50 in assay [2] (setting [4]) is 234 nM.
On to `CCN1CCC(n2cc([C@@H](Nc3ccc4ncc(C#N)c(Nc5ccc(F)c(Cl)c5)c4c3)c3ccccc3)nn2)CC1` [Example 779, (S)-4-((3-chloro-4-fluorophenyl)amino)-6-(((1-(1 ethylpiperidin-4-yl)-1H-1,2,3-triazol-4-yl)(phenyl)methyl)amino)quinoline-3-carbonitrile], for which the EC50 in assay [1] (setting [5]) was found to be 196 nM. Besides, in assay [2] (setting [7]), the IC50 was 4 nM.
On to `Cc1ccccc1[C@H](Nc1cc(C#N)c2ncc(C#N)c(NCC(C)(C)C)c2c1)c1cn(C2(C#N)CC2)nn1` [Example 1024, (S)-6-(((1-(1-cyanocyclopropyl)-1H-1,2,3-triazol-4-yl)(o-tolyl)methyl)amino)-4-(neopentylamino)quinoline-3,8-dicarbonitrile], for which the EC50 in assay [1] (setting [3]) worked out at 54 nM. The IC50 in assay [2] (setting [4]) was 5 nM.
On to `[2H]C(Nc1cc(Cl)c2ncc(C#N)c(Nc3cnc(F)c(F)c3)c2c1)(c1ccc(F)cc1)c1cn(C2CC2)cn1` (stereo not drawn) [Example 355, 8-chloro-6-(((1-cyclopropyl-1H-imidazol-4-yl)(4-fluorophenyl)methyl-d)amino)-4-((5,6-difluoropyridin-3-yl)amino)quinoline-3-carbonitrile], for which the EC50 in assay [1] (setting [5]) came out at 4660 nM. Moreover, the IC50 in assay [2] (setting [6]) was found to be 121 nM.
On to `CC(C)(C)N1CCC(n2cc([C@@H](Nc3cc(Cl)c4ncc(C#N)c(Nc5ccc(Cl)c(Cl)c5F)c4c3)c3ccc(Cl)cc3)nn2)CC1` [Example 731, (S)-6-(((1-(1-(tert-butyl)piperidin-4-yl)-1H-1,2,3-triazol-4-yl)(4-chlorophenyl)methyl)amino)-8-chloro-4-((3,4-dichloro-2-fluorophenyl)amino)quinoline-3-carbonitrile], for which the EC50 in assay [1] (setting [5]) amounted to 4450 nM. Besides, in assay [2] (setting [7]), the IC50 amounted to 78 nM.
For `N#Cc1cnc2c(Cl)cc(N[C@H](c3cn(C4CC4)nn3)c3ccccc3F)cc2c1Nc1cnc(F)c(F)c1` [Example 430, (S)-8-chloro-6-(((1-cyclopropyl-1H-1,2,3-triazol-4-yl)(2-fluorophenyl)methyl)amino)-4-((5,6-difluoropyridin-3-yl)amino)quinoline-3-carbonitrile], in assay [1] (setting [5]), the EC50 is 679 nM. Also, the IC50 in assay [2] (setting [7]) is 7 nM.
`[2H][C@](Nc1cc(Cl)c2ncc(C#N)c(N[C@H](CCC#N)c3ccccc3)c2c1)(c1ccc(F)cc1)c1cn(C2(C(F)(F)F)CC2)nn1` [Example 938, 8-chloro-4-(((R)-3-cyano-1-phenylpropyl)amino)-6-(((S)-(4-fluorophenyl)(1-(1-(trifluoromethyl)cyclopropyl)-1H-1,2,3-triazol-4-yl)methyl-d)amino)quinoline-3-carbonitrile]: the EC50 in assay [1] (setting [3]) stood at 71 nM. Moreover, the IC50 in assay [2] (setting [4]) turned out to be 6 nM.
With `Cc1c([C@H](Nc2cc(C#N)c3ncc(C#N)c(NCC(C)(C)C)c3c2)c2cn(C3(C(F)(F)F)CC3)nn2)cccc1-n1ccnn1` [Example 1068, (S)-6-(((2-methyl-3-(1H-1,2,3-triazol-1-yl)phenyl)(1-(1-(trifluoromethyl)cyclopropyl)-1H-1,2,3-triazol-4-yl)methyl)amino)-4-(neopentylamino)quinoline-3,8-dicarbonitrile], in assay [1] (setting [3]), the EC50 came out at 58 nM. The IC50 in assay [2] (setting [4]) worked out at 3 nM.
In the case of `[2H]C(Nc1cc(Cl)c2ncc(C#N)c(NCC(C)(C)C)c2c1)(c1cn(CC(N)=O)nn1)c1ccccc1Cl` (stereo not drawn) [Compound 4], in assay [1] (setting [5]), the EC50 was found to be 280 nM. In assay [2] (setting [6]), the IC50 was found to be 6 nM.
